Measurements from patent publication US8871946B2, “Benzimidazole-4-carboxamide derivatives, their preparation methods, pharmaceutical compositions and their uses” (Zhejiang Medicine Co., Ltd. Xinchang Pharmaceutical Factory, priority 2009, dated 2014).
In brackets after ≈: the same amount, converted by molar mass.

Each compound was assayed on coxsackie B3 viruses (assay: Measures of anti-coxsackie B3 viruses activity of the compounds in Vero cells). Conditions: Enterovirus B, B3, half inhibitory concentration for viruses, read-out: IC50.
Assay type: cell-based
Text: Measures of Anti-Coxsackie B3 Viruses Activity of the Compounds The products are applied for measures of antivirus properties of Vero cells. Refer to the results of Table 3: datum of anti-coxsackie B3 viruses activities of some compounds. […] IC50 indicates half inhibitory concentration for viruses. RBV indicates triazole nucleoside, is also called ribavirin, virazole.

IC50 | Structure (SMILES)
354 µg/mL (≈ 1450 µM) | NC(=O)c1ncn([C@@H]2O[C@H](CO)[C@@H](O)[C@H]2O)n1 [RBV, ribavirin, reference compound]

Same assay, conditions: half inhibitory concentration for viruses

IC50 | Structure (SMILES)
9.8 µg/mL (≈ 22.6 µM) | O=C(NC(CO)C(O)c1ccc([N+](=O)[O-])cc1)c1cccc2[nH]c(-c3ncccn3)nc12 (stereo not drawn) [(L)-2-(2-pyrimidinyl)-1H-benzimidazole-4-[N-(1-hydroxymethyl-2-p-nitrophenylhydroxyethyl)]amide]
5.3 µg/mL (≈ 12.6 µM) | O=C(NC(CO)C(O)c1ccc([N+](=O)[O-])cc1)c1cccc2[nH]c(-c3ccc[nH]3)nc12 (stereo not drawn) [(L)-2-(2-pyrrolyl)-1H-benzimidazole-4-[N-(1-hydroxymethyl-2-p-nitrophenylhydroxyethyl)]amide]
15.90 µg/mL (≈ 36.3 µM) | O=C(NC(CO)C(O)c1ccc([N+](=O)[O-])cc1)c1cccc2[nH]c(-c3cccs3)nc12 (stereo not drawn) [(L)-2-(2-thienyl)-1H-benzimidazole-4-[N-(1-hydroxymethyl-2-p-nitrophenylhydroxyethyl)]amide]
10.2 µg/mL (≈ 21.2 µM) | O=C(NC(CO)C(O)c1ccc([N+](=O)[O-])cc1)c1cccc2[nH]c(-c3cc(O)c(O)c(O)c3)nc12 (stereo not drawn) [(L)-2-(3,4,5-trihydroxyphenyl)-1H-benzimidazole-4-[N-(1-hydroxymethyl-2-p-nitrophenylhydroxyethyl)]amide]
8.6 µg/mL (≈ 19.1 µM) | Cc1cc(C)c(-c2nc3c(C(=O)NC(CO)C(O)c4ccc([N+](=O)[O-])cc4)cccc3[nH]2)[nH]1 (stereo not drawn) [(L)-2-(3,5-dimethyl-2-pyrrolyl)-1H-benzimidazole-4-[N-(1-hydroxymethyl-2-p-nitrophenylhydroxyethyl)]amide]
5.8 µg/mL (≈ 13.4 µM) | O=C(NC(CO)C(O)c1ccc([N+](=O)[O-])cc1)c1cccc2[nH]c(-c3cccnn3)nc12 (stereo not drawn) [(L)-2-(3-pyridazinyl)-1H-benzimidazole-4-[N-(1-hydroxymethyl-2-p-nitrophenylhydroxyethyl)]amide]
17.2 µg/mL (≈ 35.5 µM) | Nc1ncnc(Cl)c1-c1nc2c(C(=O)NC(CO)C(O)c3ccc([N+](=O)[O-])cc3)cccc2[nH]1 (stereo not drawn) [(L)-2-(4-amino-6-chloro-5-pyrimidinyl)-1H-benzimidazole-4-[N-(1-hydroxymethyl-2-p-nitrophenylhydroxyethyl)]amide]
10.2 µg/mL (≈ 21.4 µM) | CN(C)c1ccnc(-c2nc3c(C(=O)NC(CO)C(O)c4ccc([N+](=O)[O-])cc4)cccc3[nH]2)c1 (stereo not drawn) [(L)-2-(4-dimethylaminopyridyl)-1H-benzimidazole-4-[N-(1-hydroxymethyl-2-p-nitrophenylhydroxyethyl)]amide]
6.3 µg/mL (≈ 13.6 µM) | COc1ccnc(-c2nc3c(C(=O)NC(CO)C(O)c4ccc([N+](=O)[O-])cc4)cccc3[nH]2)c1 (stereo not drawn) [(L)-2-(4-methoxypyridyl)-1H-benzimidazole-4-[N-(1-hydroxymethyl-2-p-nitrophenylhydroxyethyl)]amide]
8.9 µg/mL (≈ 19 µM) | Cc1nc(-c2nc3c(C(=O)NC(CO)C(O)c4ccc([N+](=O)[O-])cc4)cccc3[nH]2)sc1N (stereo not drawn) [(L)-2-(4-methyl-5-aminothiazolyl)-1H-benzimidazole-4-[N-(1-hydroxymethyl-2-p-nitrophenylhydroxyethyl)]amide]
2.3 µg/mL (≈ 5.07 µM) | Nc1ccc(-c2nc3c(C(=O)NC(CO)C(O)c4ccc([N+](=O)[O-])cc4)cccc3[nH]2)s1 (stereo not drawn) [(L)-2-(5-amino-2-thienyl)-1H-benzimidazole-4-[N-(1-hydroxymethyl-2-p-nitrophenylhydroxyethyl)]amide]
10.69 µg/mL (≈ 22.1 µM) | O=C(NC(CO)C(O)c1ccc([N+](=O)[O-])cc1)c1cccc2[nH]c(-c3ccc([N+](=O)[O-])s3)nc12 (stereo not drawn) [(L)-2-(5-nitro-2-thienyl)-1H-benzimidazole-4-[N-(1-hydroxymethyl-2-p-nitrophenylhydroxyethyl)]amide]
11.2 µg/mL (≈ 24.2 µM) | COc1cccc(-c2nc3c(C(=O)NC(CO)C(O)c4ccc([N+](=O)[O-])cc4)cccc3[nH]2)n1 (stereo not drawn) [(L)-2-(6-methoxypyridyl)-1H-benzimidazole-4-[N-(1-hydroxymethyl-2-p-nitrophenylhydroxyethyl)]amide]
11.1 µg/mL (≈ 25.5 µM) | Cn1cccc1-c1nc2c(C(=O)NC(CO)C(O)c3ccc([N+](=O)[O-])cc3)cccc2[nH]1 (stereo not drawn) [(L)-2-(N-methyl-2-pyrrolyl)-1H-benzimidazole-4-[N-(1-hydroxymethyl-2-p-nitrophenylhydroxyethyl)]amide]
4.2 µg/mL (≈ 9.54 µM) | O=C(NC(CO)C(O)c1ccccc1[N+](=O)[O-])c1cccc2[nH]c(N3CCNCC3)nc12 (stereo not drawn) [(L)-2-N-piperazinyl-1H-benzimidazole-4-[N-(1-hydroxymethyl-2-o-nitrophenylhydroxyethyl)]amide]
11.2 µg/mL (≈ 25.5 µM) | O=C(NC(CO)C(O)c1ccc([N+](=O)[O-])cc1)c1cccc2[nH]c(-c3nccs3)nc12 (stereo not drawn) [(L)-2-thiazolyl-1H-benzimidazole-4-[N-(1-hydroxymethyl-2-p-nitrophenylhydroxyethyl)]amide]
9.6 µg/mL (≈ 20.4 µM) | O=C(NC(CO)C(O)c1ccc([N+](=O)[O-])cc1)c1cccc2[nH]c(-c3c[nH]c4ccccc34)nc12 [(L-)2-(3-indolyl)-1H-benzimidazole-4-[N-(1-hydroxymethyl-2-p-nitrophenylhydroxyethyl)]amide]
